Consider four compounds from patent publication US20210253538A1, “AMINOPYRAZINES AND RELATED COMPOUNDS USEFUL AS MITOCHONDRIAL UNCOUPLERS” (VIRGINIA TECH INTELLECTUAL PROPERTIES, INC., priority 2018, published 2021).

For test [1], the system named is whole cells (NMuLi, C2C12, and L6 cells, isolated cardiomyocytes, human primary fibroblasts). The test is described as follows: Oxygen consumption rate (OCR) in whole cells, Seahorse XF-24 Flux Analyzer. The class given is cell-based. As to the method:
Biological activities of the compounds synthesized is determined by determining increase in oxygen consumption rate (OCR).
Oxygen consumption rate (OCR) in whole cells is measured in general accordance with the method of Kenwood B M et al. (Mol. Met. (2014) 3: 114-123).
OCR is measured using a Seahorse XF-24 Flux Analyzer (Seahorse Biosciences, North Billerica, Mass.). NMuLi, C2C12, and L6 cells are seeded in a Seahorse 24-well tissue culture plate at a density of 3.5×10^4 cells/well, isolated cardiomyocytes at a density of 4×10^4 cells/well, and human primary fibroblasts at a density of 1.1×10^4 cells/well. The cells are then allowed to adhere for 24 h. Prior to the assay, the media is changed to unbuffered DMEM containing pyruvate and glutamine (Gibco #12800-017, pH=7.4 at 37° C.) and the cells are equilibrated for 30 mins at 37° C. Compounds are injected during the assay and OCR is measured using 2 min measurement periods.
2-3 wells are used per condition and averaged over three plates (n=6-9). Statistical significance is determined by two-way ANOVA with Bonferroni's posttest.

The conditions of test [2]: patients consuming ~300 mg/d, over several months, without changes in food intake; cited from earlier work.

For the compound `FC(F)(F)Oc1ccc(Nc2ncc(C(F)(F)F)nc2OCc2ccccc2)cc1` [Compound 3-18, 3-(Benzyloxy)-N-(4-(Trifluoromethoxy)Phenyl)-5-(Trifluoromethyl)Pyrazin-2-Amine], in test [1], the “increase in oxygen consumption rate (OCR)” value (“increase” for short) is reported as “observable activity”.
Turning to `Oc1nc(C(F)(F)F)cnc1Nc1ccc(OC(F)(F)F)cc1` [Compound 3-19, 3-((4-(Trifluoromethoxy)Phenyl)Amino)-6-(Trifluoromethyl)Pyrazin-2-Ol], the “increase” value in test [1] was “observable activity”.
For the compound `Oc1nc(-c2ccc(C(F)(F)F)cc2)cnc1Nc1ccc(OC(F)(F)F)cc1` [Compound 3-26, 3-((4-(Trifluoromethoxy)Phenyl)Amino)-6-(4-(Trifluoromethyl)Phenyl) Pyrazin-2-Ol], the “increase” value in test [1] was “observable activity”.
`O=[N+]([O-])c1ccc(O)c([N+](=O)[O-])c1` [DNP, 2,4-dinitrophenol]: in test [2], the Average weight shed is reported as 1.5 pounds per week.
